This is an account of results in patent US9884043B2, “RORgammaT inhibitors” (Merck Sharp & Dohme Corp., priority 2011, dated 2018).

Where only a bound is given, the exact number is not on record here.

This experiment deals with T1, HIS-tagged RORγ-LBD (Homo sapiens, UniProt P51449).
T1 construct: HIS-tagged RORγ-LBD was recombinantly expressed in SF9 cells using a baculovirus expression system; made in house; host or cells: SF9 cells, baculovirus; crude lysate used
T1 sequence (P51449 269-508 limits assumed): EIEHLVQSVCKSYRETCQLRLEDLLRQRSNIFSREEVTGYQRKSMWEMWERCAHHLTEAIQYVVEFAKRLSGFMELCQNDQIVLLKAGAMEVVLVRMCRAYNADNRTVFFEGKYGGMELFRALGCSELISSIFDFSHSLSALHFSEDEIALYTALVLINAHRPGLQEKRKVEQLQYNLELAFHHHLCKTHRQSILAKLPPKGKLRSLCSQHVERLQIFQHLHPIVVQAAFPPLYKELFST
The experiment is described as follows: TR-FRET assay (Protocol B), RORγ-LBD lysate / biotinylated SRC1-2 LXXLL peptide. In kind it is biochemical. The note with it: unpurified RORγ-LBD lysate ~10 nM, SRC1-2 peptide 450 nM. The text has this: Activation of RORgammaT activity can be measured using e.g. biochemical TR-FRET assay. In such an assay, interaction of cofactor-derived peptides with human RORgammaT-Ligand Binding Domain (LBD) can be measured.
To identify novel antagonists of RORgammaT, an assay was developed which employs the interaction of RORgammaT with its co-activator peptide SRC1_2. […] The assay was run following three slightly different protocols, i.e. Protocol A, Protocol B, and Protocol C, which are described below.
TR-Fret Assay (Protocol B)
HIS-tagged RORγ-LBD was recombinantly expressed in SF9 cells using a baculovirus expression system. The protein was not purified. Cells were lysed and the lysate was used as a source for RORγ-LBD for the assay. A 1:80 dilution of RORγ-LBD lysate in assay buffer (25 mM HEPES pH 7.0, 100 mM NaCl, 0.01% Tween, 0.1% BSA) was prepared and 5 μL was added to each well (RORγ-LBD final concentration ˜10 nM). Control wells received lysate from SF9 cells not expressing RORγ-LBD.
Compounds to be tested were diluted to 100× final test concentration in DMSO and further diluted to 4× final test concentration using assay buffer to provide the test compound mixture. An aliquot (5 μL) of the test compound mixture was added to each well.
`O=C(O)Cc1ccc(-c2nn(C(=O)c3c(Cl)cccc3C(F)(F)F)c3cccc(F)c23)cc1` [Example 24G, 2-(4-(1-(2-chloro-6-(trifluoromethyl)-benzoyl)-4-fluoro-1H-indazol-3-yl)phenyl)acetic acid] came in with a concentration for half-maximal inhibition (IC50) of 500 to 10000 nM.

As to `NC(=O)c1ccc(-c2nn(C(=O)c3c(Cl)cccc3C(F)(F)F)c3cccc(F)c23)cc1` [Example 24J, 4-(1-(2-chloro-6-(trifluoromethyl)-benzoyl)-4-fluoro-1H-indazol-3-yl)benzamide], the IC50 lay in the range of 50 to 500 nM.

Turning to `Cc1cc(C(=O)O)c(F)cc1-c1nn(C(=O)c2c(Cl)cccc2C(F)(F)F)c2cccc(F)c12` [Example 24K, 4-(1-(2-chloro-6-(trifluoromethyl)-benzoyl)-4-fluoro-1H-indazol-3-yl)-2-fluoro-5-methylbenzoic acid], the IC50 was < 50 nM.

Take `Cc1cc(C(=O)O)ccc1-c1nn(C(=O)c2c(Cl)cccc2C(F)(F)F)c2cccc(F)c12` [Example 24L, 4-(1-(2-chloro-6-(trifluoromethyl)-benzoyl)-4-fluoro-1H-indazol-3-yl)-3-methylbenzoic acid]: the IC50 was < 50 nM.

As for `Cc1cc(-c2nn(C(=O)c3c(Cl)cccc3C(F)(F)F)c3cccc(F)c23)ccc1C(=O)O` [Example 24P, 4-(1-(2-chloro-6-(trifluoromethyl)-benzoyl)-4-fluoro-1H-indazol-3-yl)-2-methylbenzoic acid], the half-inhibitory concentration (IC50) was < 50 nM.

In the case of `COc1cc(C(=O)O)ccc1-c1nn(C(=O)c2c(Cl)cccc2C(F)(F)F)c2cccc(F)c12` [Example 24Q, 4-(1-(2-chloro-6-(trifluoromethyl)-benzoyl)-4-fluoro-1H-indazol-3-yl)-3-methoxybenzoic acid], the half-maximal inhibitory concentration (IC50) was in the range of 50 to 500 nM.

In the case of `O=C(O)c1c(F)cc(-c2nn(C(=O)c3c(Cl)cccc3C(F)(F)F)c3cccc(F)c23)cc1F` [Example 24R, 4-(1-(2-chloro-6-(trifluoromethyl)-benzoyl)-4-fluoro-1H-indazol-3-yl)-2,6-difluorobenzoic acid], the IC50 is < 50 nM.

The compound `CC(C)c1cc(-c2nn(C(=O)c3c(Cl)cccc3C(F)(F)F)c3cccc(F)c23)ccc1C(=O)O` [Example 24S, 4-(1-(2-chloro-6-(trifluoromethyl)-benzoyl)-4-fluoro-1H-indazol-3-yl)-2-isopropylbenzoic acid] showed a half-maximal inhibitory concentration (IC50) of 500 to 10000 nM.

Turning to `COc1cc(C(=O)O)cc(OC)c1-c1nn(C(=O)c2c(Cl)cccc2C(F)(F)F)c2cccc(F)c12` [Example 24T, 4-(1-(2-chloro-6-(trifluoromethyl)-benzoyl)-4-fluoro-1H-indazol-3-yl)-3,5-dimethoxybenzoic acid], the IC50 was > 10000 nM.

Turning to `N#Cc1cc(-c2nn(C(=O)c3c(Cl)cccc3C(F)(F)F)c3cccc(F)c23)ccc1C(=O)O` [Example 24U, 4-(1-(2-chloro-6-(trifluoromethyl)-benzoyl)-4-fluoro-1H-indazol-3-yl)-2-cyano benzoic acid], the half-maximal inhibitory concentration (IC50) was < 50 nM.

With `O=C(O)c1ccc(-c2nn(C(=O)c3c(Cl)cccc3C(F)(F)F)c3cccc(F)c23)c(F)c1F` [Example 24V, 4-(1-(2-chloro-6-(trifluoromethyl)-benzoyl)-4-fluoro-1H-indazol-3-yl)-2,3-difluorobenzoic acid], the IC50 is < 50 nM.

As to `O=C(O)c1cc(F)c(-c2nn(C(=O)c3c(Cl)cccc3C(F)(F)F)c3cccc(F)c23)cc1F` [Example 24W, 4-(1-(2-chloro-6-(trifluoromethyl)-benzoyl)-4-fluoro-1H-indazol-3-yl)-2,5-difluorobenzoic acid], the IC50 was < 50 nM.

For `O=C(O)c1cc(F)c(-c2nn(C(=O)c3c(Cl)cccc3C(F)(F)F)c3cccc(F)c23)cc1Cl` [Example 24X, 2-chloro-4-(1-(2-chloro-6-(trifluoromethyl)-benzoyl)-4-fluoro-1H-indazol-3-yl)-5-fluorobenzoic acid], the IC50 lay within 50 to 500 nM.

For orientation: IC50 means the concentration at which inhibition is half-maximal.
